Assay results published in patent US4304864A, “Long-chain acyl-coenzyme-A synthetase” (Mitsubishi Chemical Industries, Limited, priority 1978, dated 1981).
“Also recorded” adds a separate entry of the source.

Columns and labels:
acyl-CoA synthetase [1] = experiment: Substrate specificity of acyl-CoA synthetase (fatty acids); format: biochemical, Candida lipolytica; settings: for Activity (μmol acyl-CoA/min.): fatty acid concentration 0.25 mM
Procedure: (§1) The sssay of enzyme activity was carried out by the Banis and Tove method. (See Biochemica et Biophysica Acta, Vol. 348, pages 210-220 (1974)). According to this method, the reaction solution contained 20 μmol of Tris-HCl buffer (pH 7.5), 3 μmol of ATP, 2 μmol of MgCl2, 1.0 μmol of dithiothreitol, 0.2 μmol of [U-^14 C] potassium palmitate (0.2 mCi/mmol), 0.32 μmol of surfactant T, 0.2 μmol of CoA and an aliquot of the enzyme solution in a total volume of 0.2 ml. After a 5 minute preincubation, either the CoA or the enzyme solution which had been kept from incorporating in the reaction solution was added to initiate the reaction (at 25° C.). At the end of a 10 minute reaction period, 2.5 ml of isopropanol-n-heptane-1 M sulfuric acid (40:10:1) was added to stop the reaction. The solution was then extracted with heptane to remove any unreacted free fatty acid. After the aqueous layer was washed twice each with 2 ml of heptane containing 8 mg of palmitic acid, the radioactivity of the aqueous layer was measured.
(§2) The standard reaction solution contained 100 μmol of Tris-HCl buffer (pH 7.4), 5 μmol of dithiothreitol, 1.6 μmol of surfactant T, 7.5 μmol of ATP, 10 μmol of MgCl2, 0.25 μmol of potassium oleate, 1 μmol of CoA, 0.2 μmol of potassium phosphoenolpyruvate, 0.15 μmol of NADH, 20 μg of myokinase, 30 μg of pyruvate kinase, 30 μg of lactate dehydrogenase and a certain amount of acyl-CoA synthetase per ml of the solution. A reaction solution containing all the above components except CoA was preincubated at 25° C. for one minute. The reaction was then initiated by the addition of CoA, and the rate of decrease in optical density at 340 nm which was attributed to decrease in amount of NADH was determined.

acyl-CoA synthetase I [2] = experiment: Specificity for nucleoside-5'-triphosphate; format: biochemical, Candida lipolytica; settings: for effectiveness as nucleoside-5'-triphosphate: 7.5 mM and 15 mM
Procedure: as §2
(ii) Specificity for nucleoside-5'-triphosphate: Only ATP and αATP were effective. At concentrations of 7.5 mM and 15 mM, the activities measured with αATP were 78% and 61%, respectively, of those measured with ATP.

acyl-CoA synthetase I [3] = experiment: Specificity for acyl acceptors (Vmax and apparent Km); format: biochemical, Candida lipolytica; settings: for Km / Vmax: acyl acceptor; for Vmax: CoA designated as 100%; for utilization as acyl acceptor: at conc. up to 5 mM
Procedure: as §1, §2
The Vmax values and the apparent Km values were as follows: […]

acyl-CoA synthetase [4] = experiment: Activator and inhibitor of the enzyme; format: biochemical, Candida lipolytica
acyl-CoA synthetase [5] = experiment: Substrate specificity of acyl-CoA synthetase (fatty acids); format: biochemical, Candida lipolytica; settings: fatty acid concentration 0.125 mM
[6] = most purified form, prior art; cited from earlier work

Molecule: CCCCCCCCCCCCCCCC(=O)O [Palmitic acid]
- Activity (μmol acyl-CoA/min.) (acyl-CoA synthetase [1]): 20.4 μmol acyl-CoA/min.

Molecule: Nc1ccn([C@@H]2O[C@H](COP(=O)(O)OP(=O)(O)OP(=O)(O)O)[C@@H](O)[C@H]2O)c(=O)n1 [CTP]
- effectiveness as nucleoside-5'-triphosphate (acyl-CoA synthetase I [2]): essentially ineffective

Molecule: Nc1ncnc2c1ncn2[C@@H]1O[C@H](COP(=O)(O)OP(=O)(O)OP(=O)(O)O)[C@@H](O)[C@H]1O [ATP]
- effectiveness as nucleoside-5'-triphosphate (acyl-CoA synthetase I [2]): effective

Molecule: CC(C)(COP(=O)(O)OP(=O)(O)OC[C@H]1O[C@@H](n2cnc3c(N)ncnc32)[C@H](O)[C@@H]1O)[C@@H](O)C(=O)NCCC(=O)NCCS [Dephospho-CoA]
- Km (acyl-CoA synthetase I [3]): 110 µM
- Vmax (acyl-CoA synthetase I [3]): 70%

Molecule: CCCCCCCC/C=C\CCCCCCCC(=O)O [Oleic acid]
- Activity (μmol acyl-CoA/min.) (acyl-CoA synthetase [1]): 23.8 μmol acyl-CoA/min.

Molecule: CCCCCCCCCCCCCCC(=O)O [Pentadecanoic acid]
- Activity (μmol acyl-CoA/min.) (acyl-CoA synthetase [1]): 18.0 μmol acyl-CoA/min.

Molecule: CC(C)(CO)[C@@H](O)C(=O)NCCC(=O)NCCS [Pantetheine]
- Km (acyl-CoA synthetase I [3]): 2500 µM
- Vmax (acyl-CoA synthetase I [3]): 57%

Molecule: CCCCCCCCCCCCCCCCCCCC(=O)O [Arachidic acid]
- Activity (μmol acyl-CoA/min.) (acyl-CoA synthetase [1]): 0.6 μmol acyl-CoA/min.

Molecule: Nc1nc2c(ncn2[C@@H]2O[C@H](COP(=O)(O)OP(=O)(O)OP(=O)(O)O)[C@@H](O)[C@H]2O)c(=O)[nH]1 [GTP]
- effectiveness as nucleoside-5'-triphosphate (acyl-CoA synthetase I [2]): essentially ineffective

Molecule: CC(C)(COP(=O)(O)OP(=O)(O)OC[C@H]1O[C@@H](n2cnc3c(N)ncnc32)[C@H](O)[C@@H]1OP(=O)(O)O)[C@@H](O)C(=O)NCCC(=O)NCCS [CoA]
- Km (acyl-CoA synthetase I [3]): 42 µM
- Vmax (acyl-CoA synthetase I [3]): 100%

Molecule: αTTP
- effectiveness as nucleoside-5'-triphosphate (acyl-CoA synthetase I [2]): essentially ineffective

Molecule: CCCCC/C=C\C/C=C\CCCCCCCC(=O)O [Linoleic acid]
- Activity (μmol acyl-CoA/min.) (acyl-CoA synthetase [1]): 19.7 μmol acyl-CoA/min.

Molecule: Nc1ncnc2c1ncn2[C@@H]1O[C@H](COP(=O)(O)OP(=O)(O)NP(=O)(O)O)[C@@H](O)[C@H]1O [adenylyl imidodiphosphonate]
- effectiveness as nucleoside-5'-triphosphate (acyl-CoA synthetase I [2]): essentially ineffective

Molecule: CCCCCCCCCCCCCC(=O)O [Myristic acid]
- Activity (μmol acyl-CoA/min.) (acyl-CoA synthetase [1]): 20.8 μmol acyl-CoA/min.

Molecule: O=C(O)CN(CCN(CC(=O)O)CC(=O)O)CC(=O)O [EDTA]
- activation or inhibition of the enzyme (acyl-CoA synthetase [4]): inhibitor; also recorded: inhibits

Molecule: CC/C=C\C/C=C\C/C=C\CCCCCCCC(=O)O [Linolenic acid]
- Activity (μmol acyl-CoA/min.) (acyl-CoA synthetase [1]): 22.0 μmol acyl-CoA/min.

Molecule: Nc1ncnc2c1ncn2[C@@H]1O[C@H](COP(=O)(O)OP(=O)(O)CP(=O)(O)O)[C@@H](O)[C@H]1O [adenylyl (β,γ-methylene)diphosphonate]
- effectiveness as nucleoside-5'-triphosphate (acyl-CoA synthetase I [2]): essentially ineffective

Molecule: N[C@@H](CCC(=O)N[C@@H](CS)C(=O)NCC(=O)O)C(=O)O [Glutathione]
- utilization as acyl acceptor (acyl-CoA synthetase I [3]): Not utilized

Molecule: CC(=O)NCCS [N-Acetylcysteamine]
- utilization as acyl acceptor (acyl-CoA synthetase I [3]): Not utilized

Molecule: CC(C)(COP(=O)(O)O)[C@@H](O)C(=O)NCCC(=O)NCCS [4'-Phosphopantetheine]
- Km (acyl-CoA synthetase I [3]): 3300 µM
- Vmax (acyl-CoA synthetase I [3]): 63%

Molecule: O=C(O)CCCCCCCCCCCCCCC(=O)O [Hexadecanedioic acid]
- effectiveness as substrate of the enzyme (acyl-CoA synthetase [1]): essentially ineffective
- Activity (μmol acyl-CoA/min.) (acyl-CoA synthetase [1]): 0.6 μmol acyl-CoA/min.

Molecule: CCCCCCCCCCCCC(=O)O [Tridecanoic acid]
- Activity (μmol acyl-CoA/min.) (acyl-CoA synthetase [5]): 1.3 μmol acyl-CoA/min.

Molecule: N[C@@H](CS)C(=O)O [L-Cysteine]
- utilization as acyl acceptor (acyl-CoA synthetase I [3]): Not utilized

Molecule: CC(C)(COP(=O)(O)OP(=O)(O)OC[C@H]1O[C@@H](n2cnc3c2ncn2ccnc32)[C@H](O)[C@@H]1OP(=O)(O)O)[C@@H](O)C(=O)NCCC(=O)NCCS [1:^6 N-Etheno-CoA]
- Km (acyl-CoA synthetase I [3]): 500 µM
- Vmax (acyl-CoA synthetase I [3]): 40%

Molecule: O[C@H](CS)[C@H](O)CS (racemic) [Dithiothreitol]
- utilization as acyl acceptor (acyl-CoA synthetase I [3]): Not utilized

Molecule: αATP
- effectiveness as nucleoside-5'-triphosphate (acyl-CoA synthetase I [2]): effective
- activity relative to that measured with ATP (acyl-CoA synthetase I [2]; nucleotide 7.5 mM): 78%
- activity relative to that measured with ATP (acyl-CoA synthetase I [2]; nucleotide 15 mM): 61%

Molecule: O=c1ccn([C@@H]2O[C@H](COP(=O)(O)OP(=O)(O)OP(=O)(O)O)[C@@H](O)[C@H]2O)c(=O)[nH]1 [UTP]
- effectiveness as nucleoside-5'-triphosphate (acyl-CoA synthetase I [2]): essentially ineffective

Molecule: O=C(O)CCCCCCCCCCCCCCCO [16-Hydroxypalmitic acid]
- effectiveness as substrate of the enzyme (acyl-CoA synthetase [1]): essentially ineffective
- Activity (μmol acyl-CoA/min.) (acyl-CoA synthetase [1]): 1.5 μmol acyl-CoA/min.

Molecule: CCCCCCCCCCCC(=O)O [Lauric acid]
- Activity (μmol acyl-CoA/min.) (acyl-CoA synthetase [1]): 1.0 μmol acyl-CoA/min.

Molecule: CCCCC/C=C\C/C=C\C/C=C\C/C=C\CCCC(=O)O [Arachidonic acid]
- Activity (μmol acyl-CoA/min.) (acyl-CoA synthetase [5]): 1.3 μmol acyl-CoA/min.

Molecule: [Mg+2] [Mg^++]
- activation or inhibition of the enzyme (acyl-CoA synthetase [4]): activator; also recorded: activated

Molecule: CCCCCCCCCCCCCCCCCCC(=O)O [Nonadecanoic acid]
- Activity (μmol acyl-CoA/min.) (acyl-CoA synthetase [1]): 1.7 μmol acyl-CoA/min.

Molecule: [Cu+2] [Cu^++]
- activation or inhibition of the enzyme (acyl-CoA synthetase [4]): inhibitor
- inhibition of the enzyme action (acyl-CoA synthetase [4]; concentration of 15 mM): completely inhibits

Molecule: CCCCCCCCCCCCCCCCC(=O)O [Heptadecanoic acid]
- Activity (μmol acyl-CoA/min.) (acyl-CoA synthetase [5]): 22.3 μmol acyl-CoA/min.

Molecule: CCCCCC/C=C\CCCCCCCC(=O)O [Palmitoleic acid]
- Activity (μmol acyl-CoA/min.) (acyl-CoA synthetase [5]): 19.8 μmol acyl-CoA/min.

B1: acyl-CoA synthetase from E. coli: prior art enzyme purified from Escherichia coli by D. Samuel et al (protein, UniProt P69451 1-561, looked up)
Long-chain-fatty-acid--CoA …: MKKVWLNRYPADVPTEINPDRYQSLVDMFEQSVARYADQPAFVNMGEVMTFRKLEERSRAFAAYLQQGLGLKKGDRVALMMPNLLQYPVALFGILRAGMIVVNVNPLYTPRELEHQLNDSGASAIVIVSNFAHTLEKVVDKTAVQHVILTRMGDQLSTAKGTVVNFVVKYIKRLVPKYHLPDAISFRSALHNGYRMQYVKPELVPEDLAFLQYTGGTTGVAKGAMLTHRNMLANLEQVNATYGPLLHPGKELVVTALPLYHIFALTINCLLFIELGGQNLLITNPRDIPGLVKELAKYPFTAITGVNTLFNALLNNKEFQQLDFSSLHLSAGGGMPVQQVVAERWVKLTGQYLLEGYGLTECAPLVSVNPYDIDYHSGSIGLPVPSTEAKLVDDDDNEVPPGQPGELCVKGPQVMLGYWQRPDATDEIIKNGWLHTGDIAVMDEEGFLRIVDRKKDMILVSGFNVYPNEIEDVVMQHPGVQEVAAVGVPSGSSGEAVKIFVVKKDPSLTEESLVTFCRRQLTGYKVPKLVEFRDELPKSNVGKILRRELRDEARGKVDNKA
- specific activity [6]: 106 mU/mg protein
